Results reported in PubChem BioAssay AID651650 (Sanford-Burnham Center for Chemical Genomics, 2012).
Calls of active or inactive are those of the source.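 How the source made its calls: active means mean IC50 below 20 µM in each of the two panels, so potent in both; inactive means the rest.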

Target: Neuropilin-1 (Homo sapiens) (UniProt O14786)
Assay: NRP-1 b1b2 CendR peptide binding inhibitors, dose response, biochemical, FP and AlphaScreen panel (AID 651650)
Details: NRP-1 b1b2 / RPARPAR peptide binding, FP or AlphaScreen
[1] = AlphaScreen, run 1, individual panel run IC50
[2] = FP, run 1, individual panel run IC50
[3] = FP, run 2, individual panel run IC50

Chain of Neuropilin-1 (Homo sapiens) (O14786 whole entry, looked up): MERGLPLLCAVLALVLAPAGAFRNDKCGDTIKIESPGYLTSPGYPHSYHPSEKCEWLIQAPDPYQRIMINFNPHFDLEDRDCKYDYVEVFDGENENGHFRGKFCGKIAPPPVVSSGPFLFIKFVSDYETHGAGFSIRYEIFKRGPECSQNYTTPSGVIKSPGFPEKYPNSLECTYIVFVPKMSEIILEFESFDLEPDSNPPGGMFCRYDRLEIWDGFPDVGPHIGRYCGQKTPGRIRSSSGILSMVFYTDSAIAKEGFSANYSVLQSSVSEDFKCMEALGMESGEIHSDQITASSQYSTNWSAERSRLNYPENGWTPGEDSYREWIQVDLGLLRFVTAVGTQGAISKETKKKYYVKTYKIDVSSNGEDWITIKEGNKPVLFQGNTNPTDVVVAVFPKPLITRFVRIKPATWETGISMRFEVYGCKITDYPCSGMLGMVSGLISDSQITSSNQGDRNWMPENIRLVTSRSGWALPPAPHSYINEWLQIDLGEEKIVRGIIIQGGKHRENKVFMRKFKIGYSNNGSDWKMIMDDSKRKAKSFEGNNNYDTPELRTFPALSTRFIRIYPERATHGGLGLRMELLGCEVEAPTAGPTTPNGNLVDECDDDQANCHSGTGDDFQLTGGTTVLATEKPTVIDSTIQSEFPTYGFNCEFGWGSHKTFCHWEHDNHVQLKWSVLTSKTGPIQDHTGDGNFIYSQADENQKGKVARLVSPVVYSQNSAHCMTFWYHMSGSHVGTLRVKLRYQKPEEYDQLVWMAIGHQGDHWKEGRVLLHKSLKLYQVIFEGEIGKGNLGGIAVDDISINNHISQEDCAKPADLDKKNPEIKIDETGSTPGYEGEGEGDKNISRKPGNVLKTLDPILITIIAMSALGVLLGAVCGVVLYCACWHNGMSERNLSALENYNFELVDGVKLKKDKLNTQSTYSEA

With `CCOC(=O)c1ccc(N2CCN(C(=O)c3ccccc3)CC2)c(NC(=O)c2ccco2)c1` as the molecule, how does the IC50 (AlphaScreen, mean of runs) read?
Its IC50 is > 100 µM (inactive).

What about the IC50 [1] of the same molecule?
The IC50 was greater than 100 µM.

What about the IC50 (FP, mean of runs) of the same molecule?
Its IC50 is > 95 µM (inactive).

And the IC50 [2]?
The IC50 was greater than 95 µM.

And the IC50 [3]?
The IC50 was greater than 95 µM.

How did the IC50 (AlphaScreen, mean of runs) turn out when `COC(=O)N[C@@H]1C[C@H]2[C@@H]3CC[C@H]4C[C@@H](OC)CC[C@]4(C)[C@H]3CC[C@]12C` was run?
The IC50 was “inactive”.

And the IC50 [1]?
The IC50 was 69.5 µM.

And the IC50 (FP, mean of runs)?
Its IC50 is > 95 µM (inactive).

And the IC50 [2]?
Its IC50 is greater than 95 µM.

And the IC50 [3]?
Its IC50 is greater than 95 µM.

`O=C(Nc1cccc2c1CCCC2)c1cc(C2CCCCN2C(=O)CCCc2ccccc2)on1` (stereo not given) was tested. Which IC50 (AlphaScreen, mean of runs) did it give?
The IC50 was > 100 µM (inactive).

And the IC50 [1]?
Its IC50 is greater than 100 µM.

What about the IC50 (FP, mean of runs) of the same molecule?
The IC50 was > 95 µM (inactive).

What about the IC50 [2] of the same molecule?
The IC50 was greater than 95 µM.

And the IC50 [3]?
The IC50 was greater than 95 µM.

With `O=C(CCCNC(=O)/C(=C\c1ccc(F)cc1)NC(=O)c1ccccc1)OCc1ccccc1` as the molecule, how does the IC50 (AlphaScreen, mean of runs) read?
Its IC50 is > 100 µM (inactive).

And the IC50 [1]?
The IC50 was greater than 100 µM.

And the IC50 (FP, mean of runs)?
Its IC50 is > 95 µM (inactive).

What about the IC50 [2] of the same molecule?
The IC50 was greater than 95 µM.

What about the IC50 [3] of the same molecule?
The IC50 was greater than 95 µM.

What does the source list for `C=C(C)COc1ccc(-c2[nH]ncc2-c2ccccc2)c(O)c1`?
IC50 (AlphaScreen, mean of runs): > 100 µM (inactive); IC50 [1]: > 100 µM; IC50 (FP, mean of runs): > 95 µM (inactive); IC50 [2]: > 95 µM; IC50 [3]: > 95 µM

`CC(C)Oc1ccc(F)cc1-c1cc(C(=O)NCc2ccc(F)cc2)[nH]n1` was tested. Which IC50 (AlphaScreen, mean of runs) did it give?
Its IC50 is > 100 µM (inactive).

And the IC50 [1]?
Its IC50 is greater than 100 µM.

And the IC50 (FP, mean of runs)?
The IC50 was > 95 µM (inactive).

What about the IC50 [2] of the same molecule?
Its IC50 is greater than 95 µM.

What about the IC50 [3] of the same molecule?
Its IC50 is greater than 95 µM.

What does the source list for `COC(=O)c1ccccc1NC(=O)CSc1nc(C)cc(C)n1`?
IC50 (AlphaScreen, mean of runs): > 100 µM (inactive); IC50 [1]: > 100 µM; IC50 (FP, mean of runs): > 95 µM (inactive); IC50 [2]: > 95 µM; IC50 [3]: > 95 µM

`Cc1ccc(C)c(-n2c(SCC(=O)NC(C(=O)O)C(C)C)nnc2-c2cccc(Cl)c2)c1` (stereo not given) was tested. Which IC50 (AlphaScreen, mean of runs) did it give?
The IC50 was > 100 µM (inactive).

What about the IC50 [1] of the same molecule?
The IC50 was greater than 100 µM.

What about the IC50 (FP, mean of runs) of the same molecule?
Its IC50 is > 95 µM (inactive).

And the IC50 [2]?
Its IC50 is greater than 95 µM.

And the IC50 [3]?
Its IC50 is greater than 95 µM.

What does the source list for `Cc1ccc(C(=O)C2CN3CCC2CC3)cc1` (stereo not given)?
IC50 (AlphaScreen, mean of runs): > 100 µM (inactive); IC50 [1]: > 100 µM; IC50 (FP, mean of runs): > 95 µM (inactive); IC50 [2]: > 95 µM; IC50 [3]: > 95 µM

For `Cc1ccc(C(=O)N2CCN(C34CC5CC(CC(C5)C3)C4)CC2)o1`, which IC50 (AlphaScreen, mean of runs) is on record?
Its IC50 is “inactive”.

And the IC50 [1]?
Its IC50 is 75.4 µM.

And the IC50 (FP, mean of runs)?
The IC50 was > 95 µM (inactive).

And the IC50 [2]?
The IC50 was greater than 95 µM.

What about the IC50 [3] of the same molecule?
Its IC50 is greater than 95 µM.

With `CCc1cccc(NC(=O)CCc2c(C)nn(-c3ccc(N4CCOCC4)nn3)c2C)c1` as the molecule, how does the IC50 (AlphaScreen, mean of runs) read?
The IC50 was “inactive”.

What about the IC50 [1] of the same molecule?
Its IC50 is 40.2 µM.

What about the IC50 (FP, mean of runs) of the same molecule?
Its IC50 is > 95 µM (inactive).

What about the IC50 [2] of the same molecule?
Its IC50 is greater than 95 µM.

What about the IC50 [3] of the same molecule?
The IC50 was greater than 95 µM.

With `Cc1nnc(SC(C)C(=O)Nc2ccc(S(=O)(=O)NC3CCCCC3)cc2)s1` (stereo not given) as the molecule, how does the IC50 (AlphaScreen, mean of runs) read?
The IC50 was > 100 µM (inactive).

What about the IC50 [1] of the same molecule?
The IC50 was greater than 100 µM.

And the IC50 (FP, mean of runs)?
Its IC50 is > 95 µM (inactive).

And the IC50 [2]?
The IC50 was greater than 95 µM.

What about the IC50 [3] of the same molecule?
Its IC50 is greater than 95 µM.

How did the IC50 (AlphaScreen, mean of runs) turn out when `COc1ccc(CN2C(=O)c3ccccc3C2=O)cc1C(=O)Nc1ccccc1N1CCOCC1` was run?
Its IC50 is > 100 µM (inactive).

And the IC50 [1]?
The IC50 was greater than 100 µM.

What about the IC50 (FP, mean of runs) of the same molecule?
Its IC50 is > 95 µM (inactive).

What about the IC50 [2] of the same molecule?
Its IC50 is greater than 95 µM.

What about the IC50 [3] of the same molecule?
Its IC50 is greater than 95 µM.

How did the IC50 (AlphaScreen, mean of runs) turn out when `CCCCc1ccc(S(=O)(=O)N2CCC3(CC2)OCCO3)cc1` was run?
The IC50 was > 100 µM (inactive).

What about the IC50 [1] of the same molecule?
The IC50 was greater than 100 µM.

What about the IC50 (FP, mean of runs) of the same molecule?
Its IC50 is > 95 µM (inactive).

And the IC50 [2]?
The IC50 was greater than 95 µM.

What about the IC50 [3] of the same molecule?
Its IC50 is greater than 95 µM.

Which IC50 (AlphaScreen, mean of runs) does the source give for `Cc1cc(S(=O)(=O)NC2CCCCC2)ccc1OCC(=O)N1CCOCC1` here?
The IC50 was 15.2 µM.

What about the IC50 [1] of the same molecule?
The IC50 was 15.2 µM.

What about the IC50 (FP, mean of runs) of the same molecule?
Its IC50 is > 95 µM (inactive).

And the IC50 [2]?
The IC50 was greater than 95 µM.

And the IC50 [3]?
Its IC50 is greater than 95 µM.

For `CCOC(=O)Cn1c(=O)n(Cc2ccco2)c(=O)c2ccc(C(=O)NC3CCCC3)cc21`, which IC50 (AlphaScreen, mean of runs) is on record?
Its IC50 is “inactive”.

What about the IC50 [1] of the same molecule?
The IC50 was 63.7 µM.

And the IC50 (FP, mean of runs)?
Its IC50 is > 95 µM (inactive).

What about the IC50 [2] of the same molecule?
Its IC50 is greater than 95 µM.

What about the IC50 [3] of the same molecule?
The IC50 was greater than 95 µM.

For `CC(C)C(N)c1csc(NC(=O)Nc2cccc(C(F)(F)F)c2)n1` (stereo not given), which IC50 (AlphaScreen, mean of runs) is on record?
Its IC50 is > 100 µM (inactive).

And the IC50 [1]?
Its IC50 is greater than 100 µM.

What about the IC50 (FP, mean of runs) of the same molecule?
Its IC50 is > 95 µM (inactive).

And the IC50 [2]?
The IC50 was greater than 95 µM.

And the IC50 [3]?
The IC50 was greater than 95 µM.

With `Cc1cc(C)n2c(SCC(=O)Nc3cccc(S(N)(=O)=O)c3)nnc2n1` as the molecule, how does the IC50 (AlphaScreen, mean of runs) read?
The IC50 was > 100 µM (inactive).

What about the IC50 [1] of the same molecule?
Its IC50 is greater than 100 µM.

And the IC50 (FP, mean of runs)?
Its IC50 is > 95 µM (inactive).

What about the IC50 [2] of the same molecule?
The IC50 was greater than 95 µM.

What about the IC50 [3] of the same molecule?
The IC50 was greater than 95 µM.

What does the source list for `CCc1ccc(NC(=O)CCn2nc(C)c(S(=O)(=O)N3CCCCC3)c2C)cc1`?
IC50 (AlphaScreen, mean of runs): > 100 µM (inactive); IC50 [1]: > 100 µM; IC50 (FP, mean of runs): > 95 µM (inactive); IC50 [2]: > 95 µM; IC50 [3]: > 95 µM

Which IC50 (AlphaScreen, mean of runs) does the source give for `COc1cccc(OCCNC(=O)Nc2cc(F)c(F)cc2Cl)c1` here?
Its IC50 is > 100 µM (inactive).

What about the IC50 [1] of the same molecule?
The IC50 was greater than 100 µM.

And the IC50 (FP, mean of runs)?
Its IC50 is > 95 µM (inactive).

And the IC50 [2]?
Its IC50 is greater than 95 µM.

And the IC50 [3]?
Its IC50 is greater than 95 µM.

Which results are given for `CC(=O)OC1CC[C@]2(C#N)[C@H]3CC[C@]4(C)[C@H](C5C=CC(=O)O5)CCC4(O)C3CCC2(O)C1` (stereo not given in full)?
IC50 (AlphaScreen, mean of runs): > 100 µM (inactive); IC50 [1]: > 100 µM; IC50 (FP, mean of runs): > 95 µM (inactive); IC50 [2]: > 95 µM; IC50 [3]: > 95 µM

What does the source list for `NC(=O)C1CCCN(C(=O)c2ccc3nc(Cc4cccc(Cl)c4)oc3c2)C1` (stereo not given)?
IC50 (AlphaScreen, mean of runs): 10.7 µM; IC50 [1]: 10.7 µM; IC50 (FP, mean of runs): > 95 µM (inactive); IC50 [2]: > 95 µM; IC50 [3]: > 95 µM
